Patent US4462941A, “Dynorphin amide analogs” (The Regents of the University of California, priority 1982, dated 1984)
Where no end group is shown, it is not given here.

Key:
[1] = test system: morphine tolerant animals; assay: Tail-flick analgesia, morphine s.c. with or without peptide i.c.v., morphine tolerant animals; format: in vivo; conditions: tolerant mice
Description: (§1) Male simonesen ICR mice (Gilroy, CA) weighing between 20-25 g were housed for at least one day prior to experimentation, and used within 5 days. Each mouse was used only once.
(§2) Analgesia was measured by the tail-flick method of D'Amour and Smith, J. Pharmac. Exp. Ther., 72, pp. 74-79 (1941), incorporated herein by reference, as modified by Tulunay and Takemori, J. Pharmac. Exp. Ther., 190, pp. 395-400 (1974), incorporated herein by reference. […] Nonresponding animals were removed from the heat stimulus when reaction times exceeded 10 sec. to avoid the tail damage.
(§3) Drugs were injected 30 min. prior to testing, unless otherwise indicated.
The animals were separated into two groups. […] Exp. Ther., 167, pp. 1-8 (1969), incorporated herein by reference.
(§4) The ED50 values, their 95% confidence limits and significance of the potency ratio between two ED50 values were determined by the method of Litchfield and Wilcoxon, J. Pharmac. Exp. Ther., 96: 99-113 (1949), incorporated herein by reference.

[2] = test system: mouse vas deferens; conditions: read-out: IC50 inhibiting the twitch of the mouse vas deferens
[3] = test system: mice; assay: Analgesic activity of the peptide by itself (mouse tail-flick)
Description: as §2, §3

[4] = compared with dynorphin(1-13)
[5] = test system: morphine tolerant animals; assay: Tail-flick analgesia, β-endorphin i.c.v. with or without dynorphin(1-13) i.c.v., morphine tolerant animals; format: in vivo; conditions: tolerant mice
Text: as §1
The animals were separated into two groups. The one group was morphine tolerant (e.g., addicted); the other group was naive (e.g., not addicted). […] Exp. Ther., 167, pp. 1-8 (1969), incorporated herein by reference.
as §4

## CN1CC[C@]23c4c5ccc(O)c4O[C@H]2[C@@H](O)C=C[C@H]3[C@H]1C5.O=S(=O)(O)O [Morphine, morphine sulfate]
[1]; morphine 60 mg/kg s.c. alone
  Analgesia (%): 40%
[1]; morphine 80 mg/kg s.c. alone
  Analgesia (%): 90%

## CC[C@H](C)[C@H](NC(=O)[C@H](CCCNC(=N)N)NC(=O)[C@H](CCCNC(=N)N)NC(=O)[C@H](CC(C)C)NC(=O)[C@H](Cc1ccccc1)NC(=O)CNC(=O)CNC(=O)[C@@H](N)Cc1ccc(O)cc1)C(=O)N[C@@H](CCCNC(=N)N)C(=O)N1CCC[C@H]1C(=O)N[C@@H](CCCCN)C(=O)N[C@@H](CC(C)C)C(=O)N[C@@H](CCCCN)C(=O)O [dynorphin(1-13)]
[2]
  IC50: 3.9 nM

## YGGFLRRIRP-NH2 [dynorphin(1-10) amide, Dynorphin(1-10)-NH2]
[3]
  behavior at huge doses: tends to produce convulsions
[2]
  IC50: 0.24 nM
[4]
  rate of metabolism by the host: less quickly metabolized

## β-endorphin
[5]; β-endorphin 1 μg/mouse i.c.v. alone
  Analgesia (%): 10%
[5]; β-endorphin 2 μg/mouse i.c.v. alone
  Analgesia (%): 40%
[5]; β-endorphin 6 μg/mouse i.c.v. alone
  Analgesia (%): 100%
[5]; β-endorphin i.c.v. alone
  ED50 of β-endorphin: about 2.25 μg/mouse
